The record followed here is ChEMBL document CHEMBL1201862, “PubChem BioAssay data set” (2004).

Some test systems named below: EKVX; SK-MEL-28; NCI-H522; SF-268; MDA-N; A498; A549; Hs-578T; SK-OV-3; KM12; NCI/ADR-RES; HOP-62; SK-MEL-2; SW-620; ACHN; UO-31; MCF7; M14; NCI-H460; UACC-257.
Assay in all cases: NCI tumour cell line growth inhibition, 48 h

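Step 1: Grow cells in 96-well plates. Step 2: Expose to compound for 48 hours at 5 concentrations. Step 3: Interpolate endpoints linearly; if unreached, use highest concentration. GI50 marks 50% less growth.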 The source made the active and inactive calls. Cut-off read from the data, not from the text of the source: active = GI50 up to about 1.1 µM and inactive = higher.

On to `COc1cccc(N(CN2CC=CC2=O)C(C)=O)c1`, for which the GI50 with EKVX, in the assay with SK-MEL-28, with NCI-H522, in the assay with SF-268, in the assay on MDA-N and in the assay with A498 was > 100 µM (inactive) in each case. The GI50 in the assay on A549, in the assay with Hs-578T, in the assay with SK-OV-3, with KM12, in the assay on NCI/ADR-RES and in the assay with HOP-62 was > 100 µM (inactive) throughout. Also, the GI50 in the assay on SK-MEL-2, with SW-620, in the assay on ACHN, with UO-31, with MCF7 and in the assay on M14 was > 100 µM (inactive) in each case. In addition, the GI50 with NCI-H460 and in the assay on UACC-257 was > 100 µM (inactive) in each case.

For `CS(=O)(=O)OCCN(CCOS(C)(=O)=O)c1ccc(C=O)cc1`, the GI50 was 7.05 µM (inactive) with EKVX; 17.1 µM (inactive) in the assay with SK-MEL-28; 0.195 µM (active) in the assay on NCI-H522; 2.95 µM (inactive) in the assay on SF-268; 8.95 µM (inactive) with MDA-N; 1.74 µM (inactive) in the assay with A498. In addition, the GI50 with A549 is 2.89 µM (inactive); in the assay with Hs-578T, 14.3 µM (inactive); in the assay on SK-OV-3, 1.14 µM (inactive); with KM12 it was 10.4 µM (inactive); with NCI/ADR-RES, 7.1 µM (inactive); in the assay with HOP-62, 1.43 µM (inactive). Also, the GI50 in the assay on SK-MEL-2 was 17.1 µM (inactive); with SW-620 it was 14.9 µM (inactive); in the assay with ACHN it was 0.346 µM (active); with UO-31 it was 1.11 µM (active); in the assay with MCF7, 4.7 µM (inactive); with M14, 4.55 µM (inactive). For the same molecule, the GI50 in the assay with NCI-H460 is 0.0518 µM (active); in the assay with UACC-257, 8.32 µM (inactive).

As to `C=C1CC[C@@H](CCC2CCC3(OC2)O[C@]2(O)CC[C@@]3(C)OC2(C)C)C(C)(C)[C@H]1C/C=C1\CCOC1=O` (stereo not given in full), the GI50 with EKVX was 1.11 µM (active); with SK-MEL-28 it was 26.1 µM (inactive); in the assay with NCI-H522, 5.32 µM (inactive); with SF-268 it was 27.2 µM (inactive); in the assay on MDA-N, 20 µM (inactive); in the assay with A498, 13.3 µM (inactive). Further, the GI50 was 8.89 µM (inactive) with A549; 20.5 µM (inactive) in the assay on Hs-578T; 20.4 µM (inactive) with SK-OV-3; 16.2 µM (inactive) with KM12; 1.78 µM (inactive) in the assay with NCI/ADR-RES; 32.1 µM (inactive) in the assay with HOP-62. In addition, the GI50 in the assay on SK-MEL-2 was 17.5 µM (inactive); in the assay on SW-620, 33.3 µM (inactive); in the assay with ACHN, 10.7 µM (inactive); in the assay with UO-31, 30.3 µM (inactive); in the assay with MCF7 it was 1.76 µM (inactive); with M14 it was 17.7 µM (inactive). The GI50 in the assay on NCI-H460 is 16.4 µM (inactive); with UACC-257 it was 0.507 µM (active).

Consider `O=C(CC(=O)c1ccccc1NC1=Cc2ccccc2C(=O)C1=O)C(=O)NC1=C(Cl)C(=O)c2ccccc2C1=O`, for which the GI50 in the assay with EKVX is 7.98 µM (inactive); in the assay on SK-MEL-28, 1.89 µM (inactive); in the assay on NCI-H522 it was 1.91 µM (inactive); in the assay with SF-268, 2.93 µM (inactive); with MDA-N, 1.75 µM (inactive); in the assay on A498 it was 14.7 µM (inactive). Besides, the GI50 in the assay with A549 was 4.55 µM (inactive); in the assay with Hs-578T, 1.9 µM (inactive); in the assay on SK-OV-3, 23.3 µM (inactive); with KM12, 4.28 µM (inactive); in the assay on NCI/ADR-RES, 3 µM (inactive); with HOP-62 it was 4.79 µM (inactive). Further, the GI50 was 2.47 µM (inactive) in the assay on SK-MEL-2; 2.43 µM (inactive) in the assay with SW-620; 3.56 µM (inactive) with ACHN; 6.89 µM (inactive) with UO-31; 0.804 µM (active) in the assay with MCF7; 1.47 µM (inactive) in the assay on M14. For the same molecule, the GI50 is 3.04 µM (inactive) in the assay with NCI-H460 and 2.04 µM (inactive) in the assay with UACC-257.

Take `CC(=O)OCC1OC(Sc2nc(-c3ccccc3)c(C#N)c(=O)n2C2OC(COC(C)=O)C(OC(C)=O)C(OC(C)=O)C2OC(C)=O)C(OC(C)=O)C(OC(C)=O)C1OC(C)=O` (stereo not given): the GI50 in the assay on EKVX, in the assay with SK-MEL-28, in the assay on NCI-H522, with SF-268, with MDA-N and in the assay on A498 was > 100 µM (inactive) throughout. Also, the GI50 in the assay on A549, in the assay on Hs-578T, in the assay with SK-OV-3, in the assay with KM12, in the assay with NCI/ADR-RES and in the assay on HOP-62 was > 100 µM (inactive) in each case. The GI50 in the assay with SK-MEL-2, in the assay on SW-620, in the assay with ACHN, in the assay on UO-31, in the assay with MCF7 and in the assay with M14 was > 100 µM (inactive) in each case. Moreover, the GI50 in the assay with NCI-H460 and in the assay with UACC-257 was > 100 µM (inactive) throughout.

Regarding `COC(=O)C(N)CCCC(N)C(=O)NC(C)C(=O)NC(CCC(=O)NCCNCCNc1c2ccccc2nc2cccc([N+](=O)[O-])c12)C(N)=O` (stereo not given), the GI50 was 10.2 µM (inactive) in the assay on EKVX; 16.6 µM (inactive) in the assay with SK-MEL-28; 1.65 µM (inactive) in the assay on NCI-H522; 2.44 µM (inactive) with SF-268; 14.7 µM (inactive) in the assay on MDA-N; 17.4 µM (inactive) in the assay with A498. Besides, the GI50 in the assay with A549 was 4.67 µM (inactive); with Hs-578T, 17.9 µM (inactive); in the assay with SK-OV-3, 28 µM (inactive); with KM12, 10.5 µM (inactive); with NCI/ADR-RES, 80.5 µM (inactive); with HOP-62, 19 µM (inactive). In addition, the GI50 is 8.51 µM (inactive) in the assay on SK-MEL-2; 9.86 µM (inactive) with SW-620; 10.2 µM (inactive) in the assay with ACHN; 21.9 µM (inactive) in the assay with UO-31; 3.89 µM (inactive) with MCF7; 13.4 µM (inactive) with M14. Besides, the figures for the GI50 in the assay with NCI-H460 and in the assay on UACC-257 were 3.17 µM (inactive) and 19.5 µM (inactive), respectively.

For the molecule `O=[N+]([O-])c1cc([As](Br)c2ccc(O)c([N+](=O)[O-])c2)ccc1O`, the GI50 in the assay on EKVX is 1.87 µM (inactive); in the assay on SK-MEL-28, 1.63 µM (inactive); in the assay with NCI-H522 it was 0.145 µM (active); in the assay with SF-268, 2.14 µM (inactive); with MDA-N it was 1.53 µM (inactive); in the assay with A498 it was 1.95 µM (inactive). The GI50 in the assay on A549 is 2.62 µM (inactive); in the assay on Hs-578T, 2.41 µM (inactive); in the assay on SK-OV-3, 3.39 µM (inactive); in the assay on KM12 it was 2 µM (inactive); in the assay with NCI/ADR-RES, 2.77 µM (inactive); with HOP-62, 1.91 µM (inactive). In addition, the GI50 in the assay on SK-MEL-2 was 0.746 µM (active); with SW-620, 0.733 µM (active); in the assay on ACHN it was 1.86 µM (inactive); in the assay with UO-31, 1.61 µM (inactive); in the assay on MCF7 it was 1.27 µM (inactive); in the assay with M14, 2.03 µM (inactive). Also, the results for the GI50 in the assay on NCI-H460 and in the assay with UACC-257 were 3.12 µM (inactive) and 1.69 µM (inactive), respectively.

Turning to `O=C1CNCCCN2CCN(CCCNCC(=O)Nc3ccc(cc3)S(=O)(=O)c3ccc(cc3)NC(=O)CNCCCN3CCN(CCCNCC(=O)Nc4ccc(cc4)S(=O)(=O)c4ccc(cc4)N1)CC3)CC2`, the GI50 with EKVX was 36.6 µM (inactive); in the assay on SK-MEL-28, 22.3 µM (inactive); with NCI-H522, 10.7 µM (inactive); with SF-268, 22.9 µM (inactive); in the assay with MDA-N, 19.3 µM (inactive); in the assay on A498, 20.7 µM (inactive). The GI50 in the assay on A549 was 57.3 µM (inactive); in the assay with Hs-578T, > 45.4 µM (inactive); in the assay with SK-OV-3 it was > 100 µM (inactive); in the assay on KM12 it was 27.2 µM (inactive); in the assay on NCI/ADR-RES, 40.3 µM (inactive); in the assay with HOP-62, 25.1 µM (inactive). Also, the GI50 is 35.1 µM (inactive) in the assay on SK-MEL-2; 31.4 µM (inactive) in the assay with SW-620; 25.6 µM (inactive) with ACHN; 61 µM (inactive) with UO-31; 46.1 µM (inactive) in the assay with MCF7; 46 µM (inactive) with M14. The GI50 in the assay on NCI-H460 was 10.4 µM (inactive); in the assay with UACC-257 it was 17 µM (inactive).

For the molecule `Cc1cc(-c2nc3cc(F)ccc3s2)ccc1NC(=O)[C@@H](N)CCCCN`, the GI50 in the assay on EKVX is 1.87 µM (inactive); with SK-MEL-28 it was 18.9 µM (inactive); in the assay on NCI-H522 it was 5.46 µM (inactive); with SF-268, 6.75 µM (inactive); in the assay with MDA-N it was 1.77 µM (inactive); with A498, 10.2 µM (inactive). Also, the GI50 with A549 was 1.67 µM (inactive); in the assay with Hs-578T, 3.08 µM (inactive); with SK-OV-3 it was 8.26 µM (inactive); in the assay on KM12 it was 1.3 µM (inactive); in the assay with NCI/ADR-RES, 15.2 µM (inactive); in the assay with HOP-62 it was 3.13 µM (inactive). Also, the GI50 with SK-MEL-2 was 2.89 µM (inactive); in the assay on SW-620 it was 2.65 µM (inactive); with ACHN it was 6.04 µM (inactive); with UO-31 it was 3.29 µM (inactive); in the assay with MCF7, 0.01 µM (active); with M14 it was 2.14 µM (inactive). Further, the values for the GI50 in the assay with NCI-H460 and with UACC-257 were 0.132 µM (active) and 5.71 µM (inactive), respectively.

As for `CCSCCC(N)C(=O)O` (stereo not given), the GI50 with EKVX, with SK-MEL-28, with NCI-H522, in the assay on SF-268, in the assay on MDA-N and in the assay with A498 was > 100 µM (inactive) each time. Moreover, the GI50 with A549, in the assay on Hs-578T, with SK-OV-3, with KM12, in the assay with NCI/ADR-RES and in the assay with HOP-62 was > 100 µM (inactive) throughout. Also, the GI50 in the assay on SK-MEL-2, in the assay on SW-620, with ACHN, in the assay on UO-31, in the assay on MCF7 and with M14 was > 100 µM (inactive) each time. For the same molecule, the GI50 with NCI-H460 and in the assay on UACC-257 was > 100 µM (inactive) throughout.
